This test concerns inclusion of exon 7 of SMN2 into mRNA transcribed from the SMN2-A minigene. Nature of the test: Fold Activation: luciferase reporter, SMN2-A minigene construct versus SMN2-G minigene construct, in stably transfected HEK293H cells. It counts as cell-based, human. The conditions noted are these: ratio of First Activation using the SMN2-A construct divided by Second Activation using the SMN2-G construct. From the text:
In a specific embodiment, the first cell and the second cell are the same cell type. In some embodiments, the first cell and the second cell are the same cell type and are obtained from the same source or clone. In some embodiments, the first reporter gene and the second reporter gene are the same reporter gene. In other embodiments, the first reporter gene and second reporter gene are different reporter genes. A compound that increases the inclusion of exon 7 of SMN2 into mRNA transcribed from the SMN2 gene will result in a Fold Activation derived from a higher ratio of the First Activation:
[formula] [formula] [formula] In some embodiments, both the amount and activity of the first and second fusion proteins are detected. Accordingly, as used herein, the Fold Activation for a compound that modulates the inclusion of exon 7 of SMN2 into mRNA transcribed from the SMN2 gene is a ratio of the First Activation divided by the Second Activation.
The HEK293H cell line stably transfected with the SMN2-A minigene construct was utilized in the HTS. HTS was performed by plating 10,000 cells in each well of a 384-well plate. Each 384-well plate contained 64 control wells used as an internal standard: 16 wells were used as a total control (no test compound, only compound solvent), 16 wells were used as reference standards representing background readings (high inhibitor concentration) and 32 wells were prepared to provide an 8-point dose response curve of puromycin as a non-specific standard control inhibitor. The remaining 320 wells contained individual test compounds. The cells were grown overnight in the presence of test compounds or controls at 37° C. in 5% CO2. After 24 hours, the amount of luminescence was determined using a ViewLux Imaging system (Perkin Elmer).
Using the SMN2-A minigene construct, a HTS was performed testing a compound library. The amount of the fusion protein expressed from the minigene construct was determined by measuring luciferase activity as described herein. […] Enhancers of fusion protein expression were defined as those compounds that increased luciferase activity by at least three standard deviations above the mean. Based on this analysis, test compounds of Formula (I) were identified as hits and were subsequently confirmed by testing the compounds under the same conditions as in the original HTS. To ensure that the increase in luciferase activity detected in the HTS was due to increased inclusion of exon 7 of SMN2 into mRNA transcripts from the SMN2-A minigene construct, each compound was tested in two different cell lines: the cell line, which was used in the original HTS (HEK293H containing the SMN2-A minigene construct), and a HEK293H cell line that contained the SMN2-G minigene construct.
Each compound was tested at four concentrations: 15 μM, 3 μM, 0.6 μM, 0.12 μM.
The Fold Activation results are provided as a ratio of a First Activation using the SMN-2A construct divided by a Second Activation using the SMN-2G construct, wherein 1 star (*) represents active compounds with a fold increase ratio between 1.1-1.3; 2 stars (**) represent active compounds with a fold increase ratio between 1.3-2.0; 3 stars (***) represent active compounds with a fold increase ratio greater than 2.0.
In general terms: In a reporter assay the amount or activity of a reporter protein is the signal.

Each structure is given as a SMILES string.

Take `O=C(O)c1ccc2oc(-c3ccc(N4CCC4)cc3)nc2c1` [Cpd 57, 2-(4-azetidin-1-yl-phenyl)-benzooxazole-5-carboxylic acid]: the “Activity (Fold Activation)” value is “** (2 stars (**) represent active compounds with a fold increase ratio between 1.3-2.0)”. In the case of `O=C(O)c1ccc2nc(-c3ccco3)oc2c1` [Cpd 65, 2-furan-2-yl-benzooxazole-6-carboxylic acid], the “Activity (Fold Activation)” value is “** (2 stars (**) represent active compounds with a fold increase ratio between 1.3-2.0)”. The result for `O=C(O)c1ccc2nc(-c3ccccc3F)oc2c1` [Cpd 66, 2-(2-fluoro-phenyl)-benzooxazole-6-carboxylic acid] reads “*** (3 stars (***) represent active compounds with a fold increase ratio greater than 2.0)”; that for `Cc1cc(-c2nc3ccc(C(=O)O)cc3o2)c(C)o1` [Cpd 67, 2-(2,5-dimethyl-furan-3-yl)-benzooxazole-6-carboxylic acid], “** (2 stars (**) represent active compounds with a fold increase ratio between 1.3-2.0)”. The value for `O=C(O)c1ccc2nc(-c3cccnc3)oc2c1` [Cpd 69, 2-pyridin-3-yl-benzooxazole-6-carboxylic acid] was “* (1 star (*) represents active compounds with a fold increase ratio between 1.1-1.3)”; that for `O=C(O)c1cccc(-c2nc3ccc(C(=O)N4CCCC4)cc3o2)c1` [Cpd 71, 3-[6-(pyrrolidine-1-carbonyl)-benzooxazol-2-yl]-benzoic acid] was “** (2 stars (**) represent active compounds with a fold increase ratio between 1.3-2.0)”. The value for `NC(=O)c1cccc(-c2nc3ccc(NCCc4ccccc4)cc3o2)c1` [Cpd 73, 3-(6-phenethylamino-benzooxazol-2-yl)-benzamide] was “* (1 star (*) represents active compounds with a fold increase ratio between 1.1-1.3)”.

As to `Cc1cc(-c2nc3cc(C(=O)O)ccc3o2)c(C)o1` [Cpd 77, 2-(2,5-dimethyl-furan-3-yl)-benzooxazole-5-carboxylic acid], the “Activity (Fold Activation)” value is given as “* (1 star (*) represents active compounds with a fold increase ratio between 1.1-1.3)”. With `CN1CCCN(c2ccc3nc(-c4cccc(C(=O)O)c4)oc3c2)CC1` [Cpd 81, 3-[6-(4-methyl-[1,4]diazepan-1-yl)-benzooxazol-2-yl]-benzoic acid], the “Activity (Fold Activation)” value is “* (1 star (*) represents active compounds with a fold increase ratio between 1.1-1.3)”. With `O=C(O)c1cccc(-c2nc3ccc(Oc4ccccc4)cc3o2)c1` [Cpd 82, 3-(6-phenoxy-benzooxazol-2-yl)-benzoic acid], the “Activity (Fold Activation)” value is “** (2 stars (**) represent active compounds with a fold increase ratio between 1.3-2.0)”. The result for `O=C(O)c1ccc2oc(-c3ccc(N4CCCC4)nc3)nc2c1` [Cpd 89, 2-(6-pyrrolidin-1-yl-pyridin-3-yl)-benzooxazole-5-carboxylic acid] reads “*** (3 stars (***) represent active compounds with a fold increase ratio greater than 2.0)”. The value for `O=C(O)c1ccc2oc(-c3ccc(N4CCOCC4)nc3)nc2c1` [Cpd 90, 2-(6-morpholin-4-yl-pyridin-3-yl)-benzooxazole-5-carboxylic acid] was “** (2 stars (**) represent active compounds with a fold increase ratio between 1.3-2.0)”.

As to `O=C(O)c1ccc2oc(-c3ccc(N4CCCCC4)nc3)nc2c1` [Cpd 91, 2-(3,4,5,6-tetrahydro-2H-[1,2′]bipyridinyl-5′-yl)-benzooxazole-5-carboxylic acid], the “Activity (Fold Activation)” value is on record as “** (2 stars (**) represent active compounds with a fold increase ratio between 1.3-2.0)”. As to `O=C(O)c1ccc2nc(-c3ccc(N4CCC4)nc3)oc2c1` [Cpd 93, 2-(6-azetidin-1-yl-pyridin-3-yl)-benzooxazole-6-carboxylic acid], the “Activity (Fold Activation)” value was “** (2 stars (**) represent active compounds with a fold increase ratio between 1.3-2.0)”. The result for `O=C(O)c1ccc2oc(-c3ccc(OC(F)(F)F)cc3)nc2c1` [Cpd 100, 2-(4-trifluoromethoxy-phenyl)-benzooxazole-5-carboxylic acid] reads “** (2 stars (**) represent active compounds with a fold increase ratio between 1.3-2.0)”; that for `CN(Cc1ccccc1)c1ccc2nc(-c3cccc(C(=O)O)c3)oc2c1` [Cpd 102, 3-[6-(benzyl-methyl-amino)-benzooxazol-2-yl]-benzoic acid], “** (2 stars (**) represent active compounds with a fold increase ratio between 1.3-2.0)”; that for `O=C(O)c1ccc2oc(-c3cccc(OC(F)(F)F)c3)nc2c1` [Cpd 105, 2-(3-trifluoromethoxy-phenyl)-benzooxazole-5-carboxylic acid], “* (1 star (*) represents active compounds with a fold increase ratio between 1.1-1.3)”. The result for `NC(=O)c1cccc(-c2nc3ccc(Nc4ccccc4)cc3o2)c1` [Cpd 106, 3-(6-phenylamino-benzooxazol-2-yl)-benzamide] reads “* (1 star (*) represents active compounds with a fold increase ratio between 1.1-1.3)”. The value for `NC(=O)c1cccc(-c2nc3ccc(N4CCCCC4)cc3o2)c1` [Cpd 110, 3-(6-piperidin-1-yl-benzooxazol-2-yl)-benzamide] was “* (1 star (*) represents active compounds with a fold increase ratio between 1.1-1.3)”; that for `COc1ccc2nc(-c3cccc(C(N)=O)c3)oc2c1` [Cpd 111, 3-(6-methoxy-benzooxazol-2-yl)-benzamide] was “** (2 stars (**) represent active compounds with a fold increase ratio between 1.3-2.0)”; that for `Cc1ccc2nc(-c3cccc(C(N)=O)c3)oc2c1` [Cpd 112, 3-(6-methyl-benzooxazol-2-yl)-benzamide] was “** (2 stars (**) represent active compounds with a fold increase ratio between 1.3-2.0)”. For `CC(=O)Nc1ccc2oc(-c3ccc(Br)c(C)c3)nc2c1` [Cpd 128, N-[2-(4-bromo-3-methyl-phenyl)-benzooxazol-5-yl]-acetamide], the “Activity (Fold Activation)” value is reported as “*** (3 stars (***) represent active compounds with a fold increase ratio greater than 2.0)”.

These data come from patent US8633019B2, “Methods for treating spinal muscular atrophy” (PTC Therapeutics, Inc., priority 2008, dated 2014).
